Laboratory results as given in patent US20260373266A1, “PROTEIN DEGRADERS AND USES THEREOF” (KYMERA THERAPEUTICS, INC., priority 2022, published 2026).

What follows are molecules tested against T1, DCAF1 WD40 domain (residues 1077-1390) (Homo sapiens, UniProt Q9Y4B6) (assay: DCAF1 binding assay by SPR (Biacore 8K+), DCAF1-3 KD). Details: 25 °C, read-out: DCAF1-3 SPR (KD).
T1 construct: DCAF1 WD40 domain (residues 1077-1390)
T1 sequence (Q9Y4B6 1077-1390): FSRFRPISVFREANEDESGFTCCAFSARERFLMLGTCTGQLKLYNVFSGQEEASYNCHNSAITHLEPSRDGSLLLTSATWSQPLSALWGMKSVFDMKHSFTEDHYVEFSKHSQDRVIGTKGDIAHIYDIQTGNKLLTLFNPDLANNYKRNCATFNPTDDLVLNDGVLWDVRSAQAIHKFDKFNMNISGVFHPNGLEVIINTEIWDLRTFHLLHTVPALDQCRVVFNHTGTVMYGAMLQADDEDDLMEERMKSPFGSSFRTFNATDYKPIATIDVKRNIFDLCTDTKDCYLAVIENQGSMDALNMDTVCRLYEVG
Work on NC(=O)C[C@H](NC(=O)c1cn[nH]c1-c1ccccc1F)c1ccc(Cl)cc1 [I-97] yielded a Kd of under 10 µM.
Work on Fc1cccc(N2CCC[C@H](Cc3cc(N4CCOCC4)ccn3)C2)c1 [I-98] yielded a Kd of over 200 µM.
COCCN1CCC(c2ccnc(N[C@@H]3CCCN(c4cccc(F)c4)C3)c2)CC1 [I-99] showed a Kd of 10 to 100 µM.
NC(=O)C[C@H](NC(=O)c1n[nH]cc1-c1ccccc1F)c1cccc(Cl)c1 [I-100] was tested, and the Kd was 10 to 100 µM.
Cc1ccc([C@H](CC(N)=O)NC(=O)c2cn[nH]c2-c2ccccc2F)cc1 [I-101] was tested, and the Kd was 10 to 100 µM.
Cc1cccc(-c2[nH]ncc2C(=O)N[C@@H](CC(N)=O)c2cccc(Cl)c2)c1 [I-102] was tested, and the Kd was 10 to 100 µM.
Molecule Cc1ccc(-c2[nH]ncc2C(=O)N[C@@H](CC(N)=O)c2cccc(Cl)c2)cc1 [I-103] has a Kd of under 10 µM.
Molecule Cc1ccccc1-c1[nH]ncc1C(=O)N[C@@H](CC(N)=O)c1cccc(Cl)c1 [I-104] has a Kd of under 10 µM.
Cc1ccccc1[C@H](CC(N)=O)NC(=O)c1cn[nH]c1-c1ccccc1F [I-105] was tested, and the Kd was under 10 µM.
C[C@H](NC(=O)c1c[nH]nc1-c1ccccc1F)c1cccc(Cl)c1 [I-106] gave a Kd of 10 to 100 µM.
Cc1n[nH]cc1C(=O)N[C@@H](CC(N)=O)c1cccc(Cl)c1 [I-107] showed a Kd of over 200 µM.
Cc1cccc([C@H](CC(N)=O)NC(=O)c2cn[nH]c2-c2ccccc2F)c1 [I-108] showed a Kd of under 10 µM.
For Fc1cccc(N2CCC[C@@H](Nc3cc([C@@H]4CCCNC4)ccn3)C2)c1 [I-109], the Kd was over 200 µM.
Work on Fc1cccc(N2CCC[C@@H](Nc3cc([C@H]4CCCNC4)ccn3)C2)c1 [I-110] yielded a Kd of 10 to 100 µM.
For c1ccc2c(N3CCC[C@@H](Nc4cc(N5CCOCC5)ccn4)C3)n[nH]c2c1 [I-111], the Kd was over 200 µM.
With c1ccc2c(N3CCC[C@@H](Nc4cc(N5CCOCC5)ccn4)C3)nsc2c1 [I-112] the Kd was 10 to 100 µM.
Fc1cccc(N2CCC[C@@H](Sc3cc(N4CCOCC4)ccn3)C2)c1 [I-113] gave a Kd of over 200 µM.
NC(=O)C[C@H](NC(=O)c1[nH]ccc1-c1ccccc1F)c1cccc(Cl)c1 [I-114] gave a Kd of 10 to 100 µM.
For NC(=O)C[C@H](NC(=O)c1cn[nH]c1-c1cccc(F)c1)c1cccc(Cl)c1 [I-115], the Kd was under 10 µM.
Work on NC(=O)C[C@H](NC(=O)c1cn[nH]c1-c1ccc(F)cc1)c1cccc(Cl)c1 [I-116] yielded a Kd of under 10 µM.
Work on N#Cc1cccc([C@H](CC(N)=O)NC(=O)c2c[nH]nc2-c2ccccc2F)c1 [I-117] yielded a Kd of 10 to 100 µM.
For N#Cc1ccc([C@H](CC(N)=O)NC(=O)c2c[nH]nc2-c2ccccc2F)cc1 [I-118], the Kd was under 10 µM.
Work on Fc1cccc(N2CCC[C@H](Nc3nccc(N4CCOCC4)n3)C2)c1 [I-119] yielded a Kd of 100 to 200 µM.
In the case of COCCn1cc(C(=O)N[C@@H](CC(N)=O)c2cccc(Cl)c2)c(-c2ccccc2F)n1 [I-120], the Kd is reported as 10 to 100 µM.
COc1ccc(N2CCOCC2)cc1N[C@@H]1CCCN(c2cccc(F)c2)C1 [I-121] showed a Kd of over 200 µM.
In the case of Fc1cccc(N2CCC[C@@H](Nc3cc(C4=CCCOC4)ccn3)C2)c1 [I-122], the Kd is reported as over 200 µM.
Fc1cccc(N2CCC[C@@H](Nc3cc([C@@H]4CCCOC4)ccn3)C2)c1 [I-123] showed a Kd of over 200 µM.
Work on Fc1cccc(N2CCC[C@@H](Nc3cc([C@@H]4CCCCN4)ccn3)C2)c1 [I-124] yielded a Kd of over 200 µM.
Molecule Fc1cccc(N2CCC[C@@H](Nc3cc([C@H]4CCCOC4)ccn3)C2)c1 [I-125] has a Kd of over 200 µM.
With Fc1cccc(N2CCC[C@@H](Nc3cc([C@H]4CCCCN4)ccn3)C2)c1 [I-126] the Kd was over 200 µM.
NC(=O)C[C@H](NC(=O)c1cn[nH]c1-c1cccnc1)c1cccc(Cl)c1 [I-127] gave a Kd of 10 to 100 µM.
For N#Cc1ccc(-c2[nH]ncc2C(=O)N[C@@H](CC(N)=O)c2cccc(Cl)c2)cc1 [I-128], the Kd was 10 to 100 µM.
With NC(=O)C[C@H](NC(=O)c1cn[nH]c1-c1ccccc1F)c1cccc(O)c1 [I-129] the Kd was over 200 µM.
In the case of NC(=O)C[C@H](NC(=O)c1cn[nH]c1-c1ccccc1F)c1ccc(O)cc1 [I-130], the Kd is reported as over 200 µM.
For NC(=O)C[C@H](NC(=O)c1cn[nH]c1-c1ccccc1F)c1cccnc1 [I-131], the Kd was over 200 µM.
Molecule C[C@H](CC(N)=O)NC(=O)c1cn[nH]c1-c1ccccc1F [I-132] has a Kd of over 200 µM.
Molecule NC(=O)C[C@H](NC(=O)c1cnn(CC2CC2)c1-c1ccccc1F)c1cccc(Cl)c1 [I-133] has a Kd of 10 to 100 µM.
CC(C)n1ncc(C(=O)N[C@@H](CC(N)=O)c2cccc(Cl)c2)c1-c1ccccc1F [I-134] was tested, and the Kd was 100 to 200 µM.
For Fc1cccc(N2C[C@H](F)C[C@@H](Nc3cc(N4CCOCC4)ncn3)C2)c1 [I-135], the Kd was over 200 µM.
Molecule COc1ccc([C@H](CC(N)=O)NC(=O)c2cn[nH]c2-c2ccccc2F)cc1 [I-136] has a Kd of 100 to 200 µM.
In the case of NC(=O)C[C@H](NC(=O)c1cn(CC2CC2)nc1-c1ccccc1F)c1cccc(Cl)c1 [I-137], the Kd is reported as 10 to 100 µM.
CC(C)n1cc(C(=O)N[C@@H](CC(N)=O)c2cccc(Cl)c2)c(-c2ccccc2F)n1 [I-138] gave a Kd of 10 to 100 µM.
With NC(=O)C[C@H](NC(=O)c1cnn(Cc2ccccc2)c1-c1ccccc1F)c1cccc(Cl)c1 [I-140] the Kd was over 200 µM.
CC(C(N)=O)[C@H](NC(=O)c1cn[nH]c1-c1ccccc1F)c1cccc(Cl)c1 (stereo partly shown) [I-141] gave a Kd of over 200 µM.
O=C(C[C@H](NC(=O)c1cn[nH]c1-c1ccccc1F)c1cccc(Cl)c1)NC1CC1 [I-142] was tested, and the Kd was over 200 µM.
Cc1cccc([C@H](CC(N)=O)NC(=O)c2cn[nH]c2-c2ccccc2F)n1 [I-143] showed a Kd of over 200 µM.
Work on O=C(CC1CC[C@@H](Nc2cc(N3CCOCC3)ccn2)CN1c1cccc(F)c1)Nc1cccc(Cl)c1 (stereo partly shown) [I-144] yielded a Kd of over 200 µM.
CN1C[C@H](Nc2cc(N3CCOCC3)ccn2)CCC1CC(=O)Nc1cccc(Cl)c1 (stereo partly shown) [I-145] was tested, and the Kd was over 200 µM.
Work on C[C@H](C(N)=O)[C@H](NC(=O)c1c[nH]nc1-c1ccccc1F)c1cccc(Cl)c1 [I-147] yielded a Kd of 10 to 100 µM.
C[C@@H](C(N)=O)[C@H](NC(=O)c1c[nH]nc1-c1ccccc1F)c1cccc(Cl)c1 [I-148] showed a Kd of under 10 µM.
Cc1cccc(F)c1-c1[nH]ncc1C(=O)N[C@@H](CC(N)=O)c1cccc(Cl)c1 [I-149] showed a Kd of under 10 µM.
In the case of NC(=O)C[C@H](NC(=O)c1c[nH]nc1-c1c(F)cccc1F)c1cccc(Cl)c1 [I-150], the Kd is reported as under 10 µM.
With NC(=O)C[C@H](C(=O)Nc1cnn(Cc2ccccc2)c1-c1ccccc1F)c1cccc(Cl)c1 [I-153] the Kd was over 200 µM.
Molecule NC(=O)C[C@H](NC(=O)c1cnn(Cc2ccncn2)c1-c1ccccc1F)c1cccc(Cl)c1 [I-154] has a Kd of over 200 µM.
Molecule NC(=O)C[C@@]1(NC(=O)c2c[nH]nc2-c2ccccc2F)CCCc2c(Cl)cccc21 [I-155] has a Kd of over 200 µM.
NC(=O)C[C@H](NC(=O)c1c[nH]nc1-c1ccc[nH]c1=O)c1cccc(Cl)c1 [I-156] was tested, and the Kd was over 200 µM.
For Cn1nccc1-c1[nH]ncc1C(=O)N[C@@H](CC(N)=O)c1cccc(Cl)c1 [I-157], the Kd was 10 to 100 µM.
In the case of NC(=O)C[C@H](NC(=O)c1cn[nH]c1-c1cnsc1)c1cccc(Cl)c1 [I-158], the Kd is reported as 10 to 100 µM.
With NC(=O)C[C@H](NC(=O)c1cn[nH]c1N1CCCCC1)c1cccc(Cl)c1 [I-159] the Kd was over 200 µM.
NC(=O)C[C@H](NC(=O)c1cn[nH]c1-c1oncc1O)c1cccc(Cl)c1 [I-161] was tested, and the Kd was over 200 µM.
Molecule NC(=O)C[C@H](N/C(=N\O)c1cn[nH]c1-c1ccccc1F)c1cccc(Cl)c1 [I-162] has a Kd of over 200 µM.
O[C@@H]1C[C@@H](Nc2cc(N3CCOCC3)ncn2)CN(c2cccc(F)c2)C1 [I-163] was tested, and the Kd was over 200 µM.
CO[C@@H]1C[C@@H](Nc2cc(N3CCOCC3)ncn2)CN(c2cccc(F)c2)C1 [I-164] gave a Kd of over 200 µM.
NC(=O)C[C@H](NC(=O)c1cnn(CC2CCCCC2)c1-c1ccccc1F)c1cccc(Cl)c1 [I-165] showed a Kd of over 200 µM.
With NC(=O)C[C@H](NC(=O)c1cnn(CC2CCCC2)c1-c1ccccc1F)c1cccc(Cl)c1 [I-166] the Kd was over 200 µM.
In the case of NC(=O)C[C@H](NC(=O)c1cnn(Cc2cncs2)c1-c1ccccc1F)c1cccc(Cl)c1 [I-167], the Kd is reported as over 200 µM.
NC(=O)C[C@H](NC(=O)c1[nH]nc(Nc2ccncn2)c1-c1ccccc1F)c1cccc(Cl)c1 [I-168] gave a Kd of over 200 µM.
NC(=O)C[C@H](NC(=O)c1[nH]nc(Nc2ccccc2)c1-c1ccccc1F)c1cccc(Cl)c1 [I-169] gave a Kd of 10 to 100 µM.
For NC(=O)C[C@H](NC(=O)c1cnn(CCc2ccccc2)c1-c1ccccc1F)c1cccc(Cl)c1 [I-170], the Kd was over 200 µM.
In the case of NC(=O)C[C@H](NC(=O)c1[nH]nc(NC2CCCCC2)c1-c1ccccc1F)c1cccc(Cl)c1 [I-171], the Kd is reported as over 200 µM.
In the case of Cn1ncc(C(=O)N[C@@H](CC(N)=O)c2cccc(Cl)c2)c1-c1ccccc1F [I-172], the Kd is reported as over 200 µM.
Molecule NC(=O)C[C@H](NC(=O)c1cnn(C(=O)c2ccccc2)c1-c1ccccc1F)c1cccc(Cl)c1 [I-173] has a Kd of over 200 µM.
NC(=O)C[C@H](NC(=O)c1cnn(C(=O)c2ccncn2)c1-c1ccccc1F)c1cccc(Cl)c1 [I-174] showed a Kd of over 200 µM.
In the case of CC(=O)n1ncc(C(=O)N[C@@H](CC(N)=O)c2cccc(Cl)c2)c1-c1ccccc1F [I-175], the Kd is reported as over 200 µM.
C[C@@]1(Nc2cc(N3CCOCC3)ncn2)CCCN(c2cccc(F)c2)C1 [I-176] was tested, and the Kd was over 200 µM.
C[C@@H]1C[C@@H](Nc2cc(N3CCOCC3)ncn2)CN(c2cccc(F)c2)C1 [I-177] gave a Kd of over 200 µM.
NC(=O)C[C@H](NC(=O)c1[nH]nc(CN2CCOCC2)c1-c1ccccc1F)c1cccc(Cl)c1 [I-178] gave a Kd of over 200 µM.
In the case of Fc1cccc(NC2CCCN(c3cc(N4CCOCC4)ncn3)C2)c1 (stereo not shown) [I-179], the Kd is reported as over 200 µM.
In the case of Fc1cccc([C@H]2CCC[C@@H](Nc3cc(N4CCOCC4)ccn3)C2)c1 [I-180], the Kd is reported as over 200 µM.
Fc1cccc([C@H]2CCC[C@@H](Nc3nccc(N4CCOCC4)n3)C2)c1 [I-181] showed a Kd of over 200 µM.
Fc1cccc([C@H]2CCC[C@@H](Nc3cc(N4CCOCC4)ncn3)C2)c1 [I-182] was tested, and the Kd was over 200 µM.
Molecule Fc1cccc([C@@H]2CCC[C@@H](Nc3cc(N4CCOCC4)ncn3)C2)c1 [I-183] has a Kd of over 200 µM.
Work on Fc1cccc([C@@H]2CCC[C@@H](Nc3cc(N4CCOCC4)ccn3)C2)c1 [I-184] yielded a Kd of over 200 µM.
In the case of Fc1cccc([C@@H]2CCC[C@@H](Nc3nccc(N4CCOCC4)n3)C2)c1 [I-185], the Kd is reported as over 200 µM.
NC(=O)C[C@H](NC(=O)c1cn[nH]c1-c1ccccc1F)c1cnsc1 [I-187] showed a Kd of over 200 µM.
Fc1cccc(N2CCC[C@@H]3[C@H]2CCN3c2cc(N3CCOCC3)ccn2)c1 [I-189] was tested, and the Kd was 10 to 100 µM.
Fc1cccc(N2CCC[C@@H]3[C@H]2CCCN3c2cc(N3CCOCC3)ccn2)c1 [I-190] gave a Kd of over 200 µM.
For NC(=O)C[C@@]1(c2cccc(Cl)c2)CN=C(c2c[nH]nc2-c2ccccc2F)N1 [I-191], the Kd was over 200 µM.
